Test results from US9453005B2, “Inhibition of influenza M2 proton channel” (The Trustees Of The University Of Pennsylvania, priority 2008, dated 2016).
Read-outs that look alike come from different tables or passages of the source.

Molecular target: AM2 (Influenza A virus, UniProt P0DOF5)
Assay: biochemical
Format: biochemical
Details: for % Activity: AM2; for change of potency on replacing or installing the head group: compared with the parent compound (BL-1743; 12 for 13)

Chain of AM2 (P0DOF5 whole entry): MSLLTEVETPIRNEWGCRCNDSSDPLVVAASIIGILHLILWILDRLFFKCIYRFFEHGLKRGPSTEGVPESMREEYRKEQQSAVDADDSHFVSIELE

Compound | % Activity | change of potency on replacing or installing the head group | further results
C1CCC2CN(C3=NCCN3)CCC2C1 (mixture of isomers) [Compound 15, 2-(octahydroisoquinolin-2(1H)-yl)-4,5-dihydro-1H-imidazol-1-ium iodide] |  |  | IC50: 29.5 µM
CN1CCC2(CCCCC2)CC1.Cl [Compound 3, 3-methyl-3-azoniaspiro[5.5]undecane chloride] | 7% |  | IC50 (Table 1, read-out: IC50): 20.6 µM
NC(=O)N1CCC2(CCCCC2)CC1 [Compound 4, 3-Aza-spiro[5.5]undecane-3-carboxylic acid amide] | 30% | no improvement of potency | 
NC(=S)N1CCC2(CCCCC2)CC1 [Compound 5, 3-Aza-spiro[5,5]undecane-3-carbothioic acid amide] | 60% | no improvement of potency | 
NS(=O)(=O)N1CCC2(CCCCC2)CC1 [Compound 6, 3-Aza-spiro[5,5]undecane-3-sulfonic acid amide] | 6 (14%) | Increases of potency | IC50 (Table 1, read-out: IC50): 15.3 µM
N=C(N)N1CCC2(CCCCC2)CC1 [Compound 7, 3-Aza-spiro[5,5]undecane-3-carboxamidine] | 13% | Increases of potency | IC50 (Table 1, read-out: IC50): 22.8 µM
NC1CCC2(CCCCC2)CC1 [Compound 8, Spiro[5.5]undec-3-ylamine] | 11% |  | 
O=C1CCCC(=O)C12CCNCC2 [Compound 10, 3-Aza-spiro[5.5]undecane-7,11-dione] | 100% |  | IC50 (SAR of BL-1743, read-out: IC50): > 100 µM; activity at 100 μM (at 100 μM tested): no activity
S=C1CCCC(=S)C12CCNCC2 [Compound 11, 3-Aza-spiro[5.5]undecane-7,11-dithione] | 12% |  | IC50 (SAR of BL-1743, read-out: IC50): 37.6 µM
C1CCC2(C1)CCNCC2 [Compound 12, 8-Aza-spiro[4.5]decane] | 12 (16.2%) |  | IC50 (Table 1, read-out: IC50): 8.14 µM
C1CCC2(C1)CCN(C1=NCCN1)CC2 [Compound 13, 8-(4,5-Dihydro-1H-imidazol-2-yl)-8-aza-spiro[4.5]decane] |  | detrimental to the activity | 
NC1CC2CC1C1CCCC21 (stereo not drawn) [Compound 16, tricyclo[5.2.1.0 2,6]dec-8-ylaminium chloride] |  |  | IC50: 15.3 µM
CNC1CC2CC1C1CCCC21 (stereo not drawn) [Compound 17, N-methyl-N-tricyclo[5.2.1.0 2,6]dec-8-ylaminium chloride] |  |  | IC50: 13.6 µM
OC(c1cnc[nH]1)N1CCC2(CCCCC2)CC1 (stereo not drawn) [Compound 19, (3-Aza-spiro[5.5]undec-3-yl)-(3H-imidazol-4-yl)-methanol] | 30% |  | 
CC1(C)CCNCC1.Cl [Compound 22, 4,4-Dimethyl-piperidine hydrochloride] | 22 (55%) |  | 
C1CCC2(CC1)CCNC2.Cl [Compound 23, 2-Aza-spiro[4.5]decane hydrochloride] | 23 (6%) |  | 
